Results as given in paper PMC5394417, “Investigating the molecular mechanism of positive and negative allosteric modulators in the calcium-sensing receptor dimer” (Scientific Reports, 2017).

Experiments:
Format in all cases: cell-based
HA-E837A CaSR mutant = target: T1, HA-E837A CaSR mutant (Rattus norvegicus, UniProt P48442, E837A); experiment: IP-One assay, HEK293T transiently transfected; settings: for EC50 / pEC50 ± S.E.M. / Max ± S.E.M.: HA-E837A; for effect on the Ca^2+-induced response: E837A mutant
T1 construct: mGluR5 signal peptide (N); expressed in transfected cells; host or cells: HEK293T
T1 sequence (P48442 20-1079 E837A): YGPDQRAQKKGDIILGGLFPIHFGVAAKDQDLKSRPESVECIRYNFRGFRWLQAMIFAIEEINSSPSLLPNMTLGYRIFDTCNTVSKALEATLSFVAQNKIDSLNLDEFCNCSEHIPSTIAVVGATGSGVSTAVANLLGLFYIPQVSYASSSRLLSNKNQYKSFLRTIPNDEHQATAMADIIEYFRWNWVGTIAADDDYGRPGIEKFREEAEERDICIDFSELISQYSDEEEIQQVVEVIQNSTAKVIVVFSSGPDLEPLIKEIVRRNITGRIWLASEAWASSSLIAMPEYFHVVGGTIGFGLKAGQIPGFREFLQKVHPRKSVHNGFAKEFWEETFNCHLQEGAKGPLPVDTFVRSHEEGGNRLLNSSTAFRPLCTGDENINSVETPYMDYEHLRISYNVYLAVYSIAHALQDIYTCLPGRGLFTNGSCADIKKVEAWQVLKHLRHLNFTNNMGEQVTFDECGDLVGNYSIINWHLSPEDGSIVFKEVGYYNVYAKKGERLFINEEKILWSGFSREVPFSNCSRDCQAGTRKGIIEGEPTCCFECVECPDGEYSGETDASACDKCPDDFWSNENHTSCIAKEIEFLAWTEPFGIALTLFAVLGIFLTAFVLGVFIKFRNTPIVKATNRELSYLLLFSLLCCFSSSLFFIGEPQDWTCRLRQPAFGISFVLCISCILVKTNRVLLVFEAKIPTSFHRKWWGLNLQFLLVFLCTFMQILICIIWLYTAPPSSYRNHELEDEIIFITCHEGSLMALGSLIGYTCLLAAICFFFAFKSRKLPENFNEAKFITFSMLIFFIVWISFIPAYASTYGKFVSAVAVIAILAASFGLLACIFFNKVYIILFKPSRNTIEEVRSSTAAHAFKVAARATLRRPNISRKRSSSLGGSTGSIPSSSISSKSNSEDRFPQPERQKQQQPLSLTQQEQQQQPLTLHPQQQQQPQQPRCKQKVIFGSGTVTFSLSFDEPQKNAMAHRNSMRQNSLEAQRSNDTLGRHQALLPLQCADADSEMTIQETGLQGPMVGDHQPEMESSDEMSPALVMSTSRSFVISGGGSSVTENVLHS
Protocol: (§1) Human embryonic kidney (HEK) 293T cells were cultured in DMEM supplemented with 10% dFBS and 1% P/S at 37 °C and 5% CO2. 48 h prior to assay, transient transfection was performed using Lipofectamine 2000 as the transfection reagent. White opaque 96-well culture plates (PerkinElmer, Waltham, MA, USA) were used for the ELISA and the TR-FRET dimerization assay, while clear tissue culture treated 96-well plates (Corning, Corning, NY, USA) were used for the IP-One assay. Both plate types were coated with poly-D-lysine before addition of cells and transfection mix. 0.25 μl/well of Lipofectamine 2000 were diluted in 25 μl/well of Opti-MEM and incubated at room temperature (RT) for 5 min. 0.03 μg/well of DNA was diluted in 25 μl/well of Opti-MEM, and subsequently mixed with the Lipofectamine 2000 dilution and incubated 20 min at RT before addition to the plates. Cell suspensions of 170.000 HEK293T cells/mL were prepared in complete growth medium and 100 μl/well (17.000 cells/well) was added to the plates, which were incubated for 48 h at 37 °C and 5% CO2 before performing assays.
(§2) Functional activity was measured using the IP-One assay, which is an IP1 accumulation assay. For agonist testing, ligands were prepared in final concentrations in ligand buffer (HBSS, 20 mM HEPES, pH 7.4 supplemented with 20 mM LiCl). Cells were washed once with 100 μl/well of assay buffer (HBSS, 20 mM HEPES, pH 7.4) and 50 μl/well of agonist solution was added after which plates were incubated at 37 °C for 30 min. Subsequently, ligand solutions were removed and cells were washed with 100 μl/well of assay buffer. Cell lysis was performed by addition of 30 μl/well of IP-One Conjugate & Lysis Buffer (Cisbio Bioassays, Codolet, France) and plates were incubated at RT for 30 min. Afterwards, 30 μl/well of assay buffer was added to dilute the cell lysate. 10 μl/well of cell lysate was transferred from the 96-well plate to a 384-well Optiplate and 10 μl/well of detection solution (Assay buffer + 2.5% of anti-IP1 antibody cryptate Terbium conjugate + 2.5% IP1-d2 conjugate (Cisbio Bioassays, Codolet, France)) was also added. The 384-well plate was incubated for 1 h at RT in dark before being measured on an EnVision plate reader (PerkinElmer, Waltham, MA, USA). Upon excitation at 340 nm, emission at 615 nm and 665 nm was measured, and the FRET ratio (665 nm/615 nm) was converted to IP1 concentrations by interpolating values from an IP1 standard curve generated from a provided IP1 calibrator (Cisbio Bioassays, Codolet, France). When testing allosteric modulators, cells were pre-incubated for 30 min at 37 °C with 50 μl/well of ligand buffer supplemented with allosteric modulator and a final concentration of 1% DMSO. Afterwards, the buffer solution was removed and 50 μl/well of agonist solution in ligand buffer supplemented with allosteric modulator and a final concentration of 1% DMSO was added. Plates were incubated for 30 min at 37 °C followed by one wash in 100 μl/well of assay buffer. Cell lysis and detection was performed as described above.

[1] = target: T2, S170A/E837A:F801A/E837A heterodimer (Rattus norvegicus, UniProt P48442, E837A/F801A/S170A); experiment: IP-One trans-activation assay, co-expression 1:1 in HEK293T
T2 construct: mGluR5 signal peptide (N); expressed in transfected cells; host or cells: HEK293T
Protocol: as §1, §2

[2] = target: T3, S170A:F801A/E837A heterodimer (Rattus norvegicus, UniProt P48442, E837A/F801A/S170A); experiment: as above
T3 construct: mGluR5 signal peptide (N); expressed in transfected cells; host or cells: HEK293T
Protocol: as §1, §2

T2 sequence (P48442 20-1079 S170A/E837A): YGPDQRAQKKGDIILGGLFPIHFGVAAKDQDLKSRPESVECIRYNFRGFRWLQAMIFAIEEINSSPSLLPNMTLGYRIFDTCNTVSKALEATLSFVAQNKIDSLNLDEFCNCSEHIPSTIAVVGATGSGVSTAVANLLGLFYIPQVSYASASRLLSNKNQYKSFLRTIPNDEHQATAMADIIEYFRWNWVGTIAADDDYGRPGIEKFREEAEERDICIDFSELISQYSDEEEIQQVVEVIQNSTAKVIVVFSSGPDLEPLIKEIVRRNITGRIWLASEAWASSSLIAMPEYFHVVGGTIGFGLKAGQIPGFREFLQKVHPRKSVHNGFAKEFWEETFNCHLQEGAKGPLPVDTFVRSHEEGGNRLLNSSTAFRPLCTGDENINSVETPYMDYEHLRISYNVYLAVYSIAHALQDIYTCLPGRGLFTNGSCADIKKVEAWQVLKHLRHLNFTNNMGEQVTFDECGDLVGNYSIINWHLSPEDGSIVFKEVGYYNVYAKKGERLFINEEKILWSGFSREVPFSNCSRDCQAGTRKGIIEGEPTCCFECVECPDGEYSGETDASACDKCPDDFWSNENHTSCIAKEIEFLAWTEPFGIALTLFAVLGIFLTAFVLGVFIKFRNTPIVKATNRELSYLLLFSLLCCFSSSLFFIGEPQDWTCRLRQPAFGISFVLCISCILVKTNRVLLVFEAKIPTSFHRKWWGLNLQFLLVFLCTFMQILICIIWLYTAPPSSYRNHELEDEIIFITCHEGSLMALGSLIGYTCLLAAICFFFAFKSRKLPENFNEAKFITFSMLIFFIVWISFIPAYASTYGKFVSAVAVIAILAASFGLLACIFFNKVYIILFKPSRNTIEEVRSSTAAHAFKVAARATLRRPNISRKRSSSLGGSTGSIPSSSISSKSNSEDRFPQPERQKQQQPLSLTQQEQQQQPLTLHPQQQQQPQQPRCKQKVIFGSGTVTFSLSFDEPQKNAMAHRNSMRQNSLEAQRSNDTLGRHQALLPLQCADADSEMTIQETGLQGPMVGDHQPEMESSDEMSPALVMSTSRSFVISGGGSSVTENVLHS
T2 sequence (P48442 20-1079 F801A/E837A): as the sequence (P48442 20-1079 S170A/E837A) above, with A151S, F782A counted along it
T3 sequence (P48442 20-1079 S170A): as the sequence (P48442 20-1079 S170A/E837A) above, with A818E counted along it
T3 sequence (P48442 20-1079 F801A/E837A): as the sequence (P48442 20-1079 S170A/E837A) above, with A151S, F782A counted along it

[Ca+2] [Ca^2+]
EC50 (HA-E837A CaSR mutant; Ca^2+ alone): 3.4 mM
pEC50 ± S.E.M. (HA-E837A CaSR mutant; Ca^2+ alone): 2.47 ± 0.01
Max ± S.E.M. (HA-E837A CaSR mutant; Ca^2+ alone, normalized to maximum response of WT CaSR): 87 ± 16%
EC50 (HA-E837A CaSR mutant; Ca^2+ with 1 μM NPS R-568): 3.88 mM
pEC50 ± S.E.M. (HA-E837A CaSR mutant; Ca^2+ with 1 μM NPS R-568): 2.41 ± 0.04
Max ± S.E.M. (HA-E837A CaSR mutant; Ca^2+ with 1 μM NPS R-568, normalized to maximum response with Ca^2+ alone for the construct): 100 ± 5%
EC50 (HA-E837A CaSR mutant; Ca^2+ with 5 μM NPS 2143): 3.46 mM
pEC50 ± S.E.M. (HA-E837A CaSR mutant; Ca^2+ with 5 μM NPS 2143): 2.46 ± 0.02
Max ± S.E.M. (HA-E837A CaSR mutant; Ca^2+ with 5 μM NPS 2143, normalized to maximum response with Ca^2+ alone for the construct): 91 ± 5.7%

CC(C)(Cc1ccc2ccccc2c1)NC[C@@H](O)COc1cccc(Cl)c1C#N.Cl [NPS 2143, NPS 2143 hydrochloride]
effect on the Ca^2+-induced response (HA-E837A CaSR mutant; 5 μM NPS 2143): neither NPS R-568 nor NPS 2143 had any significant effect
inhibition of Ca^2+-mediated response ([1]; S170A/E837A:F801A/E837A heterodimer, 0.2, 1 and 5 μM NPS 2143): not subjected to inhibition
inhibition of Ca^2+-mediated response ([2]; S170A:F801A/E837A heterodimer, 5 μM NPS 2143): full inhibition

COc1cccc([C@@H](C)NCCCc2ccccc2Cl)c1.Cl [NPS R-568, NPS R-568 hydrochloride]
effect on the Ca^2+-induced response (HA-E837A CaSR mutant; 1 μM NPS R-568): neither NPS R-568 nor NPS 2143 had any significant effect
potentiation of Ca^2+-mediated response ([1]; S170A/E837A:F801A/E837A heterodimer, 0.05, 0.1 and 1 μM NPS R-568): not potentiated
potentiation of Ca^2+-mediated response ([2]; S170A:F801A/E837A heterodimer, 0.05, 0.1 and 1 μM NPS R-568): potentiated
